Data reported in article PMC10763615, “Identification and engineering of potent cyclic peptides with selective or promiscuous binding through biochemical profiling and bioinformatic data analysis” (RSC Chemical Biology, 2023).
Read-outs that look alike come from different tables or passages of the source.

T1: FGF-R1C ECD (Homo sapiens, UniProt P11362)
T1 sequence (P11362 22-376 limits assumed): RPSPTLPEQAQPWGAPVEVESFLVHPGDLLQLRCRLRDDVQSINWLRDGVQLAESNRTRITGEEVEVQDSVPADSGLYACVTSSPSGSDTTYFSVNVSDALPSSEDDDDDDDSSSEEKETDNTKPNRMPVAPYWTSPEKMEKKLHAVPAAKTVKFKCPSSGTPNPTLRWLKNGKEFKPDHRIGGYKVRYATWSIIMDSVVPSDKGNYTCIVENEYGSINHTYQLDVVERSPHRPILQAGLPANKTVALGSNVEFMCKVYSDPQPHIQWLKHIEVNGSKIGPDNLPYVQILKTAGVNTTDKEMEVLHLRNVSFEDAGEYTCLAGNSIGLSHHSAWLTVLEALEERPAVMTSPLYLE

T2: FGF-R3C ECD (Homo sapiens, UniProt P22607)
T2 sequence (P22607 23-375 limits assumed): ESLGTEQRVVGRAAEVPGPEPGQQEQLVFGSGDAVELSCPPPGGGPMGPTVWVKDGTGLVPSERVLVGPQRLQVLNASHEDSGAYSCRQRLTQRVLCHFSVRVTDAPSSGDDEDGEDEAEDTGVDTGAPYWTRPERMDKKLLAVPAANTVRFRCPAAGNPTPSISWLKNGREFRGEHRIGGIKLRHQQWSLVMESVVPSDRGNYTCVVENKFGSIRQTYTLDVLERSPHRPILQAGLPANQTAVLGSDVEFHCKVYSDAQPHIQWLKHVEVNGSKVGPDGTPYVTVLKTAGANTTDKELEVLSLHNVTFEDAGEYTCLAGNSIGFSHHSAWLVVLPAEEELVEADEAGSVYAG

T3: FGF-R4 ECD (Homo sapiens, UniProt P22455)
T3 construct: DNA constructs for the extracellular domain (ECD) of human FGF-; HPC4 (C); made in house; host or cells: HEK 293-6E
T3 sequence (P22455 22-369 limits assumed): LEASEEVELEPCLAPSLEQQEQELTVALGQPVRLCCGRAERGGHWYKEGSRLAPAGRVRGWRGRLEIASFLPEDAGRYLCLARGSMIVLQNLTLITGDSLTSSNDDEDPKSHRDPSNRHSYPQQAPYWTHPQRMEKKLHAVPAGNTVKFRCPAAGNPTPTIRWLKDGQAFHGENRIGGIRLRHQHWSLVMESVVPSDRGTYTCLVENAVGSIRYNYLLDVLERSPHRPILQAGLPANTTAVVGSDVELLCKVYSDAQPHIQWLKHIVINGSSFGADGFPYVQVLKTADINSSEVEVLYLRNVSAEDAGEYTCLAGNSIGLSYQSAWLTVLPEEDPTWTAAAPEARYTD

T4: FGFR1c/KLB (Fc-fused human FGF-R1alpha(IIIc) with beta-klotho) (Homo sapiens, UniProt P11362)
T4 sequence (P11362 22-376 limits assumed): T1 sequence (P11362 22-376 limits assumed)

T5: FGFR3c/BKL (Fc-fused human FGF-R3alpha(IIIc) with beta-klotho) (Homo sapiens, UniProt P22607)
T5 sequence (P22607 23-375 limits assumed): T2 sequence (P22607 23-375 limits assumed)

T6: FGFR4/KLB (Fc-fused human FGF-R4 with beta-klotho) (Homo sapiens, UniProt P22455)
T6 sequence (P22455 22-369 limits assumed): T3 sequence (P22455 22-369 limits assumed)

B1: FGF21: unlabelled FGF21, natural ligand used as positive control (protein, UniProt Q9NSA1 29-209, looked up)
Fibroblast growth factor 21: HPIPDSSPLLQFGGQVRQRYLYTDDAQQTEAHLEIREDGTVGGAADQSPESLLQLKALKPGVIQILGVKTSRFLCQRPDGALYGSLHFDPEACSFRELLLEDGYNVYQSEAHGLPLHLPGNKSPHRDPAPRGPARFLPLPGLPPALPEPPGILAPQPPDVGSSDPLSMVGPSQGRSPSYAS

Tests used:
[1] = molecular target: T1, FGF-R1C ECD; test: biochemical
How it was run: (§1)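 Streptavidin biosensors carrying biotinylated FGF receptor ECD were immersed in peptide (~1 μM for crude single-point runs, a concentration series for purified peptides) and then in peptide-free buffer. KD was obtained by fitting the BLI association and dissociation curves.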

[2] = molecular target: T2, FGF-R3C ECD; test: biochemical
How it was run: as §1

[3] = molecular target: T3, FGF-R4 ECD; test: multi-concentration BLI of purified peptides; format: binding; settings: purified NNK library peptides
How it was run: as §1

[4] = molecular target: T3, FGF-R4 ECD; test: single concentration BLI of crude peptides; format: binding; settings: crude NNK peptides, single concentration BLI (Table S3); read-out: KD (4)
How it was run: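 Biotinylated FGF-R ECD on streptavidin biosensors was dipped into ~1 μM crude peptide in PBS pH7.4 with 0.05% Tween-20 and 0.01% BSA for association, then into buffer for dissociation, and followed by BLI. Fitted KD values were adjusted for peptide concentration measured by UPLC-CAD.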

[5] = molecular target: T4, FGFR1c/KLB (Fc-fused human FGF-R1alpha(IIIc) with beta-klotho); test: AlphaScreen FGF21 competitive binding assay
Method: Alphascreen binding assay
(§2) The competitive binding assay was carried out according to the methods detailed in Hansen. et al using
(§3) AlphaScreen.3 All reagents and samples were prepared in assay buffer: 40mM Hepes, 140mM NaCl, 1mM
(§4) CaCl2, 0,05% Tween20, pH=7.5, 0.1% BSA. In brief, recombinant human beta-klotho (R&D Systems) was
(§5) preincubated for 60 min with the ectodomain, either Fc-fused human FGF-R1alpha(IIIc), FGF-R3alpha(IIIc)
(§6) or FGF-R4 (R&D Systems), and the mixture was added to the test peptides in OptiPlate™ (PerkinElmer).
(§7) Biotinylated FGF21 and heparin were further added to each well. AlphaScreen bead mix (1:1 mix of Protein
(§8) A acceptor beads/ streptavidin-coated donor beads, PerkinElmer) were added to each well incubated
(§9) overnight at RT in the dark, and measured on a plate reader (Envision). Assays were carried out in triplicates
(§10) with concentrations ranging from 3, 10, 30, 100, 300 ,1000 and 3000 nM of peptide. No peptide control
(§11) (media only) was used as a negative control, and unlabeled FGF21 and FGF1 as positive control.
(§12) competing with biotinylated natural FGF21 ligand.

[6] = molecular target: T5, FGFR3c/BKL (Fc-fused human FGF-R3alpha(IIIc) with beta-klotho); test: AlphaScreen FGF21 competitive binding assay
Method: Alphascreen binding assay
as §2, §3, §4, §5, §6, §7, §8, §9, §10, §11, §12

[7] = molecular target: T6, FGFR4/KLB (Fc-fused human FGF-R4 with beta-klotho); test: AlphaScreen FGF21 competitive binding assay
Method: Alphascreen binding assay
as §2, §3, §4, §5, §6, §7, §8, §9, §10, §11, §12

[8] = molecular target: T1, FGF-R1C ECD; test: biochemical; format: binding; design: DNA constructs for the extracellular domain (ECD) of human FGF-; HPC4 (C); made in house; host or cells: HEK 293-6E
How it was run: as §1

[9] = molecular target: T2, FGF-R3C ECD; test: biochemical; format: binding; design: DNA constructs for the extracellular domain (ECD) of human FGF-; HPC4 (C); made in house; host or cells: HEK 293-6E
How it was run: as §1

[10] = read-out: IC50 values for controls (FGF-R1C), positive controls, Alphascreen vs biotinylated FGF21
[11] = read-out: IC50 values for controls (FGF-R3C), positive controls, Alphascreen vs biotinylated FGF21
[12] = read-out: IC50 values for controls (FGF-R4), positive controls, Alphascreen vs biotinylated FGF21

IC50 [5, 10]	IC50 [6, 11]	IC50 [7, 12]	Molecule	Kd [1]	Kd [2]	Kd [3]	Kd [4]	IC50 [5]	IC50 [6]	IC50 [7]	Kd [8]	Kd [9]
–	–	–	CC[C@H](C)[C@@H]1NC(=O)[C@@H](NC(=O)[C@@H](N)CCSC)CSSC[C@@H](C(=O)NCC(=O)N[C@@H](CO)C(=O)NCC(=O)N[C@@H](CO)C(=O)N[C@@H](CC(=O)O)C(=O)N[C@@H](Cc2ccc(O)cc2)C(=O)N[C@@H](CCCCN)C(=O)N[C@@H](CC(=O)O)C(=O)N[C@@H](CC(=O)O)C(=O)N[C@@H](CC(=O)O)C(=O)N[C@@H](CC(=O)O)C(=O)N[C@@H](CCCCN)C(N)=O)NC(=O)[C@H](CCCNC(=N)N)NC(=O)[C@H]([C@@H](C)O)NC(=O)[C@H](Cc2c[nH]c3ccccc23)NC(=O)[C@H](Cc2ccc(O)cc2)NC(=O)[C@H](CCC(N)=O)NC(=O)[C@H](Cc2ccc(O)cc2)NC(=O)[C@H]([C@@H](C)O)NC(=O)[C@H](Cc2ccc(O)cc2)NC(=O)[C@H](Cc2c[nH]c3ccccc23)NC(=O)[C@H](CCCCN)NC(=O)CNC1=O [1C.1]	111 nM	> 1000 nM	> 1000 nM	> 10000 nM	249 nM	> 1000 nM	> 1000 nM	488 nM	> 10000 nM
–	–	–	CSCC[C@H](N)C(=O)N[C@H]1CSSC[C@@H](C(=O)NCC(=O)N[C@@H](CO)C(=O)NCC(=O)N[C@@H](CO)C(=O)N[C@@H](CC(=O)O)C(=O)N[C@@H](Cc2ccc(O)cc2)C(=O)N[C@@H](CCCCN)C(=O)N[C@@H](CC(=O)O)C(=O)N[C@@H](CC(=O)O)C(=O)N[C@@H](CC(=O)O)C(=O)N[C@@H](CC(=O)O)C(=O)N[C@@H](CCCCN)C(N)=O)NC(=O)[C@H](C(C)C)NC(=O)[C@H](Cc2c[nH]c3ccccc23)NC(=O)[C@H](Cc2ccc(O)cc2)NC(=O)[C@H](CCCNC(=N)N)NC(=O)[C@H](CC(=O)O)NC(=O)[C@H](Cc2ccccc2)NC(=O)[C@H](Cc2c[nH]cn2)NC(=O)[C@H](CCCNC(=N)N)NC(=O)[C@H]([C@@H](C)O)NC(=O)[C@H](Cc2c[nH]c3ccccc23)NC(=O)[C@H](CC(C)C)NC(=O)[C@H](CC(C)C)NC1=O [1C.2]	64 nM	> 1000 nM	> 1000 nM	> 10000 nM	108 nM	> 1000 nM	> 1000 nM	95 nM	> 10000 nM
–	–	–	CSCC[C@@H]1NC(=O)[C@H](CC(N)=O)NC(=O)[C@H](CO)NC(=O)[C@@H](NC(=O)[C@@H](N)CCSC)CSSC[C@@H](C(=O)NCC(=O)N[C@@H](CO)C(=O)NCC(=O)N[C@@H](CO)C(=O)N[C@@H](CC(=O)O)C(=O)N[C@@H](Cc2ccc(O)cc2)C(=O)N[C@@H](CCCCN)C(=O)N[C@@H](CC(=O)O)C(=O)N[C@@H](CC(=O)O)C(=O)N[C@@H](CC(=O)O)C(=O)N[C@@H](CC(=O)O)C(=O)N[C@@H](CCCCN)C(N)=O)NC(=O)[C@H](C)NC(=O)[C@H](Cc2c[nH]c3ccccc23)NC(=O)[C@H](Cc2c[nH]c3ccccc23)NC(=O)[C@H](CCCNC(=N)N)NC(=O)[C@H](CC(N)=O)NC(=O)[C@H](C)NC(=O)[C@H](CC(C)C)NC(=O)[C@H](CCCCN)NC(=O)[C@H](Cc2c[nH]c3ccccc23)NC1=O [1C.3]	–	–	> 1000 nM	> 10000 nM	–	–	> 1000 nM	–	–
–	–	–	CC[C@H](C)[C@@H]1NC(=O)[C@@H](NC(=O)[C@H](CCSC)NC(C)=O)CSSC[C@@H](C(=O)NCC(=O)N[C@@H](CO)C(=O)NCC(=O)N[C@@H](CO)C(=O)N[C@@H](CC(=O)O)C(=O)N[C@@H](Cc2ccc(O)cc2)C(=O)N[C@@H](CCCCN)C(=O)N[C@@H](CC(=O)O)C(=O)N[C@@H](CC(=O)O)C(=O)N[C@@H](CC(=O)O)C(=O)N[C@@H](CC(=O)O)C(=O)N[C@@H](CCCCN)C(N)=O)NC(=O)[C@H](C(C)C)NC(=O)[C@H](C(C)C)NC(=O)[C@H](Cc2c[nH]c3ccccc23)NC(=O)[C@H](Cc2ccccc2)NC(=O)[C@H](CC(=O)O)NC(=O)[C@H](CO)NC(=O)[C@H](CC(C)C)NC(=O)[C@H](CCCNC(=N)N)NC(=O)[C@H](Cc2ccc(O)cc2)NC1=O [1C.6]	53 nM	361 nM	70 nM	47 nM	29 nM	18 nM	60 nM	19 nM	12 nM
–	–	–	CC[C@H](C)[C@@H]1NC(=O)[C@@H](NC(=O)[C@H](CCSC)NC(C)=O)CSSC[C@@H](C(=O)NCC(=O)N[C@@H](CO)C(=O)NCC(=O)N[C@@H](CO)C(=O)N[C@@H](CC(=O)O)C(=O)N[C@@H](Cc2ccc(O)cc2)C(=O)N[C@@H](CCCCN)C(=O)N[C@@H](CC(=O)O)C(=O)N[C@@H](CC(=O)O)C(=O)N[C@@H](CC(=O)O)C(=O)N[C@@H](CC(=O)O)C(=O)N[C@@H](CCCCN)C(N)=O)NC(=O)[C@H](CCC(=O)O)NC(=O)[C@H](C(C)C)NC(=O)[C@H](Cc2c[nH]c3ccccc23)NC(=O)[C@H](Cc2ccccc2)NC(=O)[C@H](CC(=O)O)NC(=O)[C@H](CO)NC(=O)[C@H](CC(C)C)NC(=O)[C@H](CCCNC(=N)N)NC(=O)[C@H](Cc2ccc(O)cc2)NC1=O [1C.7]	> 1000 nM	> 1000 nM	> 1000 nM	45 nM	473 nM	631 nM	406 nM	47 nM	281 nM
–	–	–	CC[C@H](C)[C@@H]1NC(=O)[C@@H]2CCCN2C(=O)[C@H](Cc2ccccc2)NC(=O)[C@@H]2CCCN2C(=O)[C@H](Cc2c[nH]c3ccccc23)NC(=O)[C@@H]2CCCN2C(=O)[C@H](Cc2ccccc2)NC(=O)[C@H](CCCCN)NC(=O)[C@H]([C@@H](C)O)NC(=O)[C@@H](NC(=O)[C@@H](N)CCSC)CSSC[C@@H](C(=O)NCC(=O)N[C@@H](CO)C(=O)NCC(=O)N[C@@H](CO)C(=O)N[C@@H](CC(=O)O)C(=O)N[C@@H](Cc2ccc(O)cc2)C(=O)N[C@@H](CCCCN)C(=O)N[C@@H](CC(=O)O)C(=O)N[C@@H](CC(=O)O)C(=O)N[C@@H](CC(=O)O)C(=O)N[C@@H](CC(=O)O)C(=O)N[C@@H](CCCCN)C(N)=O)NC(=O)[C@H](C)NC(=O)[C@H](Cc2c[nH]c3ccccc23)NC(=O)[C@H](Cc2ccccc2)NC1=O [1C.8]	323 nM	> 1000 nM	464 nM	70 nM	112 nM	> 1000 nM	431 nM	155 nM	47 nM
4 nM	3 nM	7 nM	FGF1: FGF1 used as positive control [reference compound]	–	–	–	–	–	–	–	–	–
23 nM	20 nM	674 nM	B1	–	–	–	–	–	–	–	–	–
